Data set [1] relates to histologically diverse tumor cells. Conditions: cited from earlier work.
The test system of data set [2] is locally advanced or metastatic breast cancer. In words: Clinical trial of CCI-779 plus letrozole: preliminary tumor responses (RECIST). Conditions: for pts with SD 24 wk: CCI pts on HD schedules, letrozole-alone pts; for partial responses (RECIST): evaluable pts: CCI n=13 (responders on HD schedules), letrozole alone n=6; for stable disease (RECIST): evaluable pts: CCI n=13, letrozole alone n=6. The format is in vivo, postmenopausal women. The procedure:
(§1) The combination of CCI-779 and letrozole in postmenopausal women with locally advanced or metastatic breast cancer is being evaluated in this clinical trial.
(§2) Randomization is in a 1:1:1 ratio (˜30 evaluable pts/arm), letrozole alone: letrozole with CCI daily (CCI daily arm): letrozole with CCI daily for 5 days every 2 weeks (CCI intermittent arm). All pts receive 2.5 mg letrozole daily.
(§3) Thus, the protocol was amended and doses were reduced to low dose (LD) schedules, 10 mg CCI daily and 30 mg CCI intermittent. As of 1 Dec.

A short description of data set [3]: Stability of CCI-779 in parenteral cosolvent formulation. The format is physicochemical. Conditions: citric acid at a concentration of less than 0.01% w/v. From the text:
In this embodiment, the stability of CCI-779 in parenterally acceptable alcoholic cosolvents is enhanced by addition of an antioxidant to the formulation. Acceptable antioxidants include, but are not limited to, citric acid, d,l-α-tocopherol, BHA, BHT, monothioglycerol, ascorbic acid, propyl gallate, and mixtures thereof. Generally, the parenteral formulations useful in this embodiment of the invention will contain an antioxidant component(s) in a concentration ranging from 0.001% to 1% w/v, or 0.01% to 0.5% w/v, of the cosolvent concentrate, although lower or higher concentrations may be desired. Of the antioxidants, d,l-α-tocopherol is particularly desirable and is used at a concentration of 0.01 to 0.1% w/v with a preferred concentration of 0.075% w/v of the cosolvent concentrate.
Examples of such chelating agents include, e.g., citric acid, acetic acid, and ascorbic acid (which may function as both a classic antioxidant and a chelating agent in the present formulations). Other chelating agents include such materials as are capable of binding metal ions in solution, such as ethylene diamine tetra acetic acid (EDTA), its salts, or amino acids such as glycine are capable of enhancing the stability of CCI-779. […] Optimal concentrations for the selected antioxidant(s) can be readily determined by one of skill in the art, based upon the information provided herein.

For data set [4], the system named is human glioblastoma cell line. The following applies: in vitro; cited from earlier work.
The next data set deals with human tumor xenografts. Conditions: nude mice, cited from earlier work.
The nature of data set [5]: Clinical trial of CCI-779 plus letrozole: safety/tolerability. The procedure: as §1, §2, §3

In the case of `CO[C@H]1C[C@@H]2CC[C@@H](C)[C@@](O)(O2)C(=O)C(=O)N2CCCC[C@H]2C(=O)O[C@H]([C@H](C)C[C@@H]2CC[C@@H](OC(=O)C(C)(CO)CO)[C@H](OC)C2)CC(=O)[C@H](C)/C=C(\C)[C@@H](O)[C@@H](OC)C(=O)[C@H](C)C[C@H](C)/C=C/C=C/C=C/1C` [CCI-779, Rapamycin 42-ester with 3-hydroxy-2-(hydroxymethyl)-2-methylpropionic acid], the “growth of tumor cells in vitro” value in data set [1] (CNS cancer, leukemia (T-cell), breast cancer, prostate cancer and melanoma lines among the most sensitive) is recorded as “inhibit the growth”. In addition, in data set [1] (in vitro tumor cells), the cell cycle effect entry was “arrested cells in the G1 phase”. Also, the “stable disease, pts on HD schedules” value in data set [2] (CCI HD schedules (25 mg daily / 75 mg intermittent) with letrozole) was determined as 6 pts. In data set [2] (CCI LD schedules (10 mg daily / 30 mg intermittent) with letrozole), the “stable disease, pts on LD schedules” value was 3 pts. For the same compound, in data set [2], the “pts with SD 24 wk” value is listed as 4 pts, the “partial responses (RECIST)” value was 3 pts and the “stable disease (RECIST)” value stood at 9 pts. The “complete response (RECIST)” value in data set [2] (evaluable CCI pts n=13, responder on HD schedule) stood at 1 pts. Also, the “stability of CCI-779 in formulation” value in data set [3] was “enhanced the stability”. Further, the “growth factor (platelet-derived)-induced stimulation of glioblastoma cells” value in data set [4] was “markedly suppressed”. The “activity in orthotopic glioma model” value with human tumor xenografts is “active”. For the same compound, in the data set on human tumor xenografts (diverse histological types, gliomas particularly sensitive), the “activity against human tumor xenografts” value is reported as “has activity against human tumor xenografts”. The “growth of human pancreatic tumors and breast cancer lines in vivo” value in the data set with human tumor xenografts (several human pancreatic tumors, one of two breast cancer lines) is “inhibited”. In addition, the “patients with toxicity that resulted in dose delay/reduction or discontinuation” value in data set [5] (female, human, in vivo) stood at 3 patients.
In the case of `N#Cc1ccc(C(c2ccc(C#N)cc2)n2cncn2)cc1` [letrozole, reference compound], in data set [2], the “pts with SD 24 wk” value was 1 pts, the “partial responses (RECIST)” value is 2 pts and the “stable disease (RECIST)” value is listed as 4 pts. The “grade 3-4 toxicities” value in data set [5] (letrozole alone 2.5 mg daily, 12 pts) is “No grade 3-4 toxicities”.

These data come from patent US20040176339A1, “Antineoplastic combinations” (Wyeth, priority 2003, published 2004).
